Results published in ChEMBL document CHEMBL1135071, “Di- and trisubstituted pyrazolo[1,5-a]pyridine derivatives: synthesis, dopamine receptor binding and ligand efficacy” (Bioorg Med Chem Lett, 2002).

Experiments:
D(2) dopamine receptor [1] = target: T1, D(2) dopamine receptor (Homo sapiens, UniProt P14416); test: In vitro binding affinity at human cloned dopamine receptor D2 (long) stably expressed in CHO cells by [3H]-Spiperone displacement.; format: cell-based
D(3) dopamine receptor = D(3) dopamine receptor (Homo sapiens, UniProt P35462); test: In vitro binding affinity at human cloned dopamine receptor D3 stably expressed in CHO cells by [3H]spiperone displacement.; format: cell-based
D(2) dopamine receptor [2] = target: T1, D(2) dopamine receptor; test: In vitro binding affinity at human cloned dopamine receptor D2 (short) stably expressed in CHO cells by [3H]spiperone displacement.; format: cell-based
D(4) dopamine receptor [3] = target: T2, D(4) dopamine receptor (Homo sapiens, UniProt P21917); test: In vitro binding affinity at human cloned dopamine receptor D4 stably expressed in CHO cells by [3H]spiperone displacement.; format: cell-based
T2 sequence (P21917 whole entry): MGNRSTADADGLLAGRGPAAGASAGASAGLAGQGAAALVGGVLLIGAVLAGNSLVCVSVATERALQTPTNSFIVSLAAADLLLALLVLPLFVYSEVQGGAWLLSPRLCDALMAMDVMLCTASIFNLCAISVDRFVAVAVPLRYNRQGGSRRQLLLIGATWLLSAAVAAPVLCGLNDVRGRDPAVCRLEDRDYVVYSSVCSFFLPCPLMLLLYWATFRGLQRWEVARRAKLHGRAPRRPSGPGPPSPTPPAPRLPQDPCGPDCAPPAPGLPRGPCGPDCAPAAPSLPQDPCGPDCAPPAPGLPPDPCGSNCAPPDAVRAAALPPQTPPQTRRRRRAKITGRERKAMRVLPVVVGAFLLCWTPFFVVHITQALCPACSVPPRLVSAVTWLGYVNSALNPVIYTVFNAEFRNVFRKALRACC

[4] = target: T3, D(4) dopamine receptor (Homo sapiens) (UniProt P21917); test: Intrinsic activity as rate of incorporation of [3H]thymidine in human D4.2 receptor established in mitogenesis assay relative to quinpirole; format: functional
T3 sequence (whole entry): T2 sequence (P21917 whole entry)

[5] = Compound was tested in vitro for its ability to compete with [3H]-ketanserin at 5-hydroxytryptamine 2 receptor in porcine brain homogenate; format: tissue-based
D(2) dopamine receptor [6] = target: T1, D(2) dopamine receptor; test: Binding affinity of compound was tested in vitro for its ability to compete with [3H]spiperone radioligand at cloned human Dopamine receptor D2L stably expressed in CHO cells; format: cell-based
D(4) dopamine receptor [7] = target: T2, D(4) dopamine receptor; test: Tested for the effective concentration against human D4.2 receptor in CHO 10001 cells established in mitogenesis assay; format: functional, cell-based

Chain of D(3) dopamine receptor (P35462 whole entry): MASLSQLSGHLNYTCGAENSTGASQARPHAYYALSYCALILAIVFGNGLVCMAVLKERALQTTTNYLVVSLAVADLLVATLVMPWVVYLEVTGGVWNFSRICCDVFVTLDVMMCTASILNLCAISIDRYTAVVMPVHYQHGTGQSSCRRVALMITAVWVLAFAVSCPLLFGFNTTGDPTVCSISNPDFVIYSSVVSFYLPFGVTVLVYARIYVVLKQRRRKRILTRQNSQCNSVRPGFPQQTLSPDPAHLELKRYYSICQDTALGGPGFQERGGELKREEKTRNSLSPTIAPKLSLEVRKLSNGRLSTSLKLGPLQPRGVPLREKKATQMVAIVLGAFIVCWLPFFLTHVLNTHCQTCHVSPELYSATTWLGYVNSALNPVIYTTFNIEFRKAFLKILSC
T1 sequence (P14416 whole entry): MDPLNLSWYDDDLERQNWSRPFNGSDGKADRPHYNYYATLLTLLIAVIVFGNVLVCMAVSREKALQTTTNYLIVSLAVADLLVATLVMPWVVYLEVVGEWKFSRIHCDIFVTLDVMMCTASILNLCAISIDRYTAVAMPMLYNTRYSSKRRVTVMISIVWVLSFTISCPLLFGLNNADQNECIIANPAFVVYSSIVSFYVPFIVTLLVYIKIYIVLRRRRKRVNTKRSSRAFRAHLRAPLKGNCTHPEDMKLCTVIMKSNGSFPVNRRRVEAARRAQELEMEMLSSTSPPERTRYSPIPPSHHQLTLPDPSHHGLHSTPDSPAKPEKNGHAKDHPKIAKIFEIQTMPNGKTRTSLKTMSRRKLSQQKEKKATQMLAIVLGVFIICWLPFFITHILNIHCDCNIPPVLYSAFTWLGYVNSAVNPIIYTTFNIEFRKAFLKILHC

Ki (D(2) dopamine receptor [1]) [µM] | Ki (D(3) dopamine receptor) [µM] | Ki (D(2) dopamine receptor [2]) [µM] | Ki (D(4) dopamine receptor [3]) [µM] | Intrinsic activity [4] [%] | Ki [5] [µM] | Ki (D(2) dopamine receptor [6]) [µM] | EC50 (D(4) dopamine receptor [7]) [µM] | Compound
5.4 | 0.84 | 2.8 | 0.0076 |  |  |  |  | Clc1ccc(N2CCN(Cc3cnn4c(-c5ccccc5)cccc34)CC2)cc1
 | 21 | 58 | 0.0023 | 26 | 1 | 59 | 0.012 | Cc1nn2c(C#N)cccc2c1CN1CCN(c2ccc(Cl)cc2)CC1
56 | > 100 | 79 | 0.11 |  |  |  |  | OCc1cccn2ncc(CN3CCN(c4ccc(Cl)cc4)CC3)c12
28 | 2.6 | 22 | 0.02 |  |  |  |  | OCc1ccc2c(CN3CCN(c4ccc(Cl)cc4)CC3)cnn2c1
14 | 3.8 | 16 | 0.087 |  |  |  |  | Cc1nn2c(-c3ccc(F)cc3)cccc2c1CN1CCN(c2ccc(Cl)cc2)CC1
3.1 | 2 | 2.8 | 0.0028 |  |  |  |  | C[Si](C)(C)c1cccc2c(CN3CCN(c4ccc(Cl)cc4)CC3)cnn12
13 | 9.4 | 12 |  |  |  |  |  | Cc1cccn2ncc(CN3CCN(c4ccc(Cl)cc4)CC3)c12
28 | 3.1 | 24 | 0.037 |  |  |  |  | Cc1nn2c(-c3ccccc3)cccc2c1CN1CCN(c2ccc(Cl)cc2)CC1
4.9 | 3.8 | 5 |  |  |  |  |  | Cc1cccc2c(CN3CCN(c4ccc(Cl)cc4)CC3)cnn12
21 | 17 | 25 | 0.0015 |  |  |  |  | C#Cc1cccc2c(CN3CCN(c4ccc(Cl)cc4)CC3)c(C)nn12
 | 26 | 45 | 0.0015 | 31 | 0.18 | 44 | 0.0015 | N#Cc1cccc2c(CN3CCN(c4ccc(Cl)cc4)CC3)cnn12
0.3 | 0.27 | 0.12 | 0.026 |  |  |  |  | Cc1nn2c(N3CCN(Cc4ccccc4)CC3)cccc2c1CN1CCN(c2ccc(Cl)cc2)CC1
9.5 | 5.9 | 9.2 | 0.0026 |  |  |  |  | O=Cc1cccc2c(CN3CCN(c4ccc(Cl)cc4)CC3)cnn12
3.7 | 4.6 | 6.2 |  |  |  |  |  | C#Cc1cccc2c(CN3CCN(c4ccc(Cl)cc4)CC3)cnn12
0.64 | 0.41 | 0.4 | 0.18 |  |  |  |  | Clc1ccc(N2CCN(Cc3cnn4c(N5CCN(Cc6ccccc6)CC5)cccc34)CC2)cc1
15 | 5.7 | 15 | 0.029 |  |  |  |  | Fc1ccc(-c2cccc3c(CN4CCN(c5ccc(Cl)cc5)CC4)cnn23)cc1
